BindingDB's records for doi:10.1016/j.bmcl.2017.08.049 (Renmin Hospital of Wuhan University, 2018)

Test: Inhibition of HIV1 3B gp41-induced cell-cell fusion between viral protein expressing human H9 cells and MT-2 target cells assessed as number of syncytia formation treated for 2 hrs measured after 6 hrs

**Q.** With `Cc1cc2c(c(O)c1-c1c(C)cc3c(c1O)/C(=C/NC(C)C(=O)NC(C)C(=O)O)C(=O)C(O)=C3C(C)C)/C(=C/NC(C)C(=O)NC(C)C(=O)O)C(=O)C(O)=C2C(C)C` (configuration not stated) as the compound, how does the IC50 read?
**A.** 7.14 µM

**Q.** With `Cc1cc2c(c(O)c1-c1c(C)cc3c(c1O)/C(=C/NC(C)S(=O)(=O)O)C(=O)C(O)=C3C(C)C)/C(=C/NC(C)S(=O)(=O)O)C(=O)C(O)=C2C(C)C` (configuration not stated) as the compound, how does the IC50 read?
**A.** 6.67 µM
